Here are results for 26 compounds from patent publication US6596718B1, “7-Morpholin-4yl-benzothiazole amide derivatives” (Hoffmann-La Roche Inc., priority 2001, dated 2003).

What is called melting point is the temperature of the solid-liquid transition. In turn, `COc1ccc(N2CCOCC2)c2sc(C(=O)NC[C@H]3CCCC[C@H]3O)nc12` (stereo in doubt) [Example 42, 4-Methoxy-7-morpholin-4-yl-benzothiazole-2-carboxylic acid (2-hydroxy-cyclohexylmethyl)-amide] displayed a melting point of 178 to 180 °C.
Then `COc1ccc(N2CCOCC2)c2sc(C(=O)NC[C@@H]3CCCC[C@H]3O)nc12` (stereo in doubt) [Example 43, 4-Methoxy-7-morpholin-4-yl-benzothiazole-2-carboxylic acid (2-hydroxy-cyclohexylmethyl)-amide], with 133 to 135 °C; and `COc1ccc(N2CCOCC2)c2sc(C(=O)N[C@H]3CCCC[C@@H]3O)nc12` (stereo in doubt) [Example 72, 4-Methoxy-7-morpholin-4-yl-benzothiazole-2-carboxylic acid (2-hydroxy-cyclohexyl)-amide], with 110 to 115 °C.
For the compound `COc1ccc(N2CCOCC2)c2sc(C(=O)Nc3ccc(F)cc3)nc12` [Example 2, 4-Methoxy-7-morpholin-4-yl-benzothiazole-2-carboxylic Acid (4-Fluoro-phenyl)-amide], the melting point was in the range of 206 to 208 °C.
The result for `COc1ccc(N2CCOCC2)c2sc(C(=O)NCc3ccccc3)nc12` [Example 3, 4-Methoxy-7-morpholin-4-yl-benzothiazole-2-carboxylic Acid Benzylamide] reads 156 to 158 °C; that for `COc1ccc(N2CCOCC2)c2sc(C(=O)Nc3ccccc3)nc12` [Example 4, 4-Methoxy-7-morpholin-4-yl-benzothiazole-2-carboxylic acid phenylamide], 190 to 191 °C; that for `COc1ccc(N2CCOCC2)c2sc(C(=O)NC3CCCCC3)nc12` [Example 5, 4-Methoxy-7-morpholin-4-yl-benzothiazole-2-carboxylic acid cyclohexylamide], 146 to 147 °C.
Then `COc1ccc(N2CCOCC2)c2sc(C(=O)NCc3ccc(Cl)cc3)nc12` [Example 7, 4-Methoxy-7-morpholin-4-yl-benzothiazole-2-carboxylic acid 4-chloro-benzylamide], with 175 to 176 °C; and `COc1ccc(N2CCOCC2)c2sc(C(=O)NC3CCCC3)nc12` [Example 8, 4-Methoxy-7-morpholin-4-yl-benzothiazole-2-carboxylic acid cyclopentylamide], with 174 to 175 °C; and `COc1ccc(NC(=O)c2nc3c(OC)ccc(N4CCOCC4)c3s2)cc1` [Example 10, 4-Methoxy-7-morpholin-4-yl-benzothiazole-2-carboxylic acid (4-methoxy-phenyl)-amide], with 148 °C.
Then `COc1cccc(NC(=O)c2nc3c(OC)ccc(N4CCOCC4)c3s2)c1` [Example 11, 4-Methoxy-7-morpholin-4-yl-benzothiazole-2-carboxylic acid (3-methoxy-phenyl)-amide], with 160 °C; and `COc1ccccc1NC(=O)c1nc2c(OC)ccc(N3CCOCC3)c2s1` [Example 12, 4-Methoxy-7-morpholin-4-yl-benzothiazole-2-carboxylic acid (2-methoxy-phenyl)-amide], with 191 °C.
Regarding `COc1ccc(N2CCOCC2)c2sc(C(=O)NCc3ccc4c(c3)OCO4)nc12` [Example 14, 4-Methoxy-7-morpholin-4-yl-benzothiazole-2-carboxylic acid (benzo[1,3]dioxol-5-ylmethyl)-amide], the melting point was in the range of 190 to 193 °C.
The compound `COc1ccc(N2CCOCC2)c2sc(C(=O)NCc3cccnc3)nc12` [Example 18, 4-Methoxy-7-morpholin-4-yl-benzothiazole-2-carboxylic acid (pyridin-3-ylmethyl)-amide] had a melting point of 181 to 184 °C.
In turn, `COc1ccc(N2CCOCC2)c2sc(C(=O)Nc3ccccn3)nc12` [Example 19, 4-Methoxy-7-morpholin-4-yl-benzothiazole-2-carboxylic acid pyridin-2-ylamide] gave a melting point of 177 to 181 °C.
Then `COc1ccc(N2CCOCC2)c2sc(C(=O)NCc3cccc(F)c3)nc12` [Example 20, 4-Methoxy-7-morpholin-4-yl-benzothiazole-2-carboxylic acid 3-fluoro-benzylamide], with 152 to 153 °C; and `COc1ccc(N2CCOCC2)c2sc(C(=O)NCc3ccccc3F)nc12` [Example 21, 4-Methoxy-7-morpholin-4-yl-benzothiazole-2-carboxylic acid 2-fluoro-benzylamide], with 133 to 134 °C.
Consider `COc1ccc(N2CCOCC2)c2sc(C(=O)NCc3cccs3)nc12` [Example 23, 4-Methoxy-7-morpholin-4-yl-benzothiazole-2-carboxylic acid (thiophen-2-ylmethyl)-amide], for which the melting point lay in the range of 174 to 175 °C.
On to `COc1ccc(N2CCOCC2)c2sc(C(=O)NCC3CC3)nc12` [Example 24, 4-Methoxy-7-morpholin-4-yl-benzothiazole-2-carboxylic acid cyclopropylmethyl-amide], for which the melting point lay in the range of 152 to 153 °C.
Then `COc1ccc(CNC(=O)c2nc3c(OC)ccc(N4CCOCC4)c3s2)cc1` [Example 26, 4-Methoxy-7-morpholin-4-yl-benzothiazole-2-carboxylic acid 4-methoxy-benzylamide], with 164 to 168 °C; and `COc1cccc(CNC(=O)c2nc3c(OC)ccc(N4CCOCC4)c3s2)c1` [Example 27, 4-Methoxy-7-morpholin-4-yl-benzothiazole-2-carboxylic acid 3-methoxy-benzylamide], with 140 to 144 °C; and `COc1ccc(N2CCOCC2)c2sc(C(=O)NCCNC(=O)c3ccc(Cl)cc3)nc12` [Example 28, 4-Methoxy-7-morpholin-4-yl-benzothiazole-2-carboxylic acid [2-(4-chloro-benzoylamino)-ethyl]-amide], with 237 to 240 °C.
As for `COc1ccc(N2CCOCC2)c2sc(C(=O)NCCN3Cc4ccccc4C3=O)nc12` [Example 29, 4-Methoxy-7-morpholin-4-yl benzothiazole-2-carboxylic acid [2-(1-oxo-1,3-dihydro-isoindol-2-yl)-ethyl]-amide], the melting point was in the range of 199 to 205 °C.
As to `COc1ccc(N2CCOCC2)c2sc(C(=O)NCC3(c4ccccc4)CCOCC3)nc12` [Example 30, 4-Methoxy-7-morpholin-4-yl-benzothiazole-2-carboxylic acid (4-phenyl-tetrahydro-pyran-4-ylmethyl)-amide], the melting point lay within 144 to 148 °C.
In the case of `COc1ccc(N2CCOCC2)c2sc(C(=O)NCc3ccncc3)nc12` [Example 31, 4-Methoxy-7-morpholin-4-yl-benzothiazole-2-carboxylic acid (pyridin-4-ylmethyl)-amide], the melting point lay within 207 to 209 °C.
For `COc1ccc(N2CCOCC2)c2sc(C(=O)NCCCN3C(=O)c4ccccc4C3=O)nc12` [Example 32, 4-Methoxy-7-morpholin-4-yl-benzothiazole-2-carboxylic acid [3-(1,3-dioxo-1,3-dihydro-isoindol-2-yl)-propyl]-amide], the melting point was in the range of 200 to 202 °C.
